Assay results from patent US11998595B2, “Telomerase polypeptide vaccine for treating cancer” (Ultimovacs AS, priority 2010, dated 2024).
Entries after “also recorded” stand apart in the source; their conditions may differ.

How the values were obtained:
Assay type in all cases: in vivo, human
[1] = system: late stage inoperable colon cancer patient; assay: Clinical course of vaccinated colon cancer patient; details: patient Colon ca P1
Description: (§1) A comparison of the patients studied in Example 4 was carried out. In brief, seven patients were identified as clinical responders following a cancer diagnosis and vaccination with an hTERT vaccine. These patients were identified based on a combination of prolonged survival and clinical response. The clinical response could either be stable disease (SD), partial response (PR) or complete response (CR). The vaccinated melanoma patients were diagnosed with stage IV at the time of inclusion in the clinical trial, but had no brain metastases. Lung cancer patient P5 was diagnosed with stage IV, inoperable lung cancer and colon cancer patient P1 with late stage inoperable colon cancer. Lung cancer patient P6 was a stage IV lung cancer patient with a 12-week life expectancy. Pancreas cancer patient P1 had relapsed, inoperable pancreas cancer and a life expectancy of 8-10 months. Four of the patients (designated Melanoma P7-P8, Lung cancer P5 and Colon cancer P1) had each been vaccinated with the peptide GV1001 (SEQ ID NO. 10). The fifth patient (designated Lung cancer P6) and the sixth patient (designated Pancreas cancer 1) had been vaccinated with dendritic cells transfected with mRNA encoding hTERT. The seventh patient, Melanoma patient P9, had not been vaccinated at the time of the study and instead developed a spontaneous response following development of the cancer. (An eighth and final patient was also identified as a clinical responder but samples from this patient were not available for study.)
(§2) The patients were classed as either clinical responders or clinical non-responders based on their clinical response which included stable disease (SD), tumour regression (PR or CR) and unexpectedly long survival time. Both clinical responders and clinical non-responders were selected from the same or similar vaccination trials.

[2] = system: stage IV melanoma patients; assay: Clinical course of vaccinated melanoma patients; design: key to Clinical response: PD = Progressive disease; SD = Stable disease; PR = Partial response; CR = Complete response
Description: as §1
Six patients who were clinical non-responders following a melanoma cancer diagnosis and a GV1001 peptide (SEQ ID NO. 10) vaccination were studied. These patients were all stage IV melanoma patients and included in the same GV1001 vaccination trial as melanoma patients P7 and P8 who were long term survivors (see Example 6). […] Five of the patients also experienced progressive disease and one patient, designated Melanoma P3, experienced some stabilization of the disease but still had short survival. The proliferative T-cell responses of each patient to a series of peptides were determined in the same manner as in Example 1, at one time point. The peak response of each patient during the study period to peptide GV1001 is also shown which confirms that each patient responded immunologically to GV1001 vaccination.
as §2

[3] = system: stage IV lung cancer patients; assay: Clinical course of vaccinated lung cancer patients; design: key to Clinical response: PD = Progressive disease; SD = Stable disease; PR = Partial response; CR = Complete response
Description: as §1
Four patients who were clinical non-responders following a lung cancer diagnosis and a GV1001 (SEQ ID NO. 10) peptide vaccination were studied. These patients were all stage IV lung cancer patients vaccinated with GV1001. […] The proliferative T-cell responses of each patient to a series of peptides were determined in the same manner as in Example 1, at one time point. The peak response of each patient during the study period to peptide GV1001 is also shown which confirms that each patient responded immunologically to GV1001 vaccination.
as §2

EARPALLTSRLRFIPK (listed as Homo sapiens) [GV1001]
Clinical Responder [1]: Yes | Clinical response [1]: alive, CR | Vaccine-specific T cell response at time-point tested [1]: Yes | Survival (Months) ([1]; + signifies that the patient is still alive): 80+ Months | Clinical Responder ([2]; patient Melanoma P1): No | Clinical response ([2]; patient Melanoma P1): PD | Survival (Months) ([2]; patient Melanoma P1): 10 Months | Vaccine-specific T cell response at time-point tested ([2]; patient Melanoma P1): Yes | Clinical Responder ([2]; patient Melanoma P2): No | Clinical response ([2]; patient Melanoma P2): PD | Survival (Months) ([2]; patient Melanoma P2): 9 Months | Vaccine-specific T cell response at time-point tested ([2]; patient Melanoma P2): Yes | Clinical Responder ([2]; patient Melanoma P3): No | Clinical response ([2]; patient Melanoma P3): SD | Survival (Months) ([2]; patient Melanoma P3): 10 Months | Vaccine-specific T cell response at time-point tested ([2]; patient Melanoma P3): Yes | Clinical Responder ([2]; patient Melanoma P4): No | Clinical response ([2]; patient Melanoma P4): PD | Survival (Months) ([2]; patient Melanoma P4): 8 Months | Vaccine-specific T cell response at time-point tested ([2]; patient Melanoma P4): Yes | Clinical Responder ([2]; patient Melanoma P5): No | Clinical response ([2]; patient Melanoma P5): PD | Survival (Months) ([2]; patient Melanoma P5): 12 Months | Vaccine-specific T cell response at time-point tested ([2]; patient Melanoma P5): Yes | Clinical Responder ([2]; patient Melanoma P6): No | Clinical response ([2]; patient Melanoma P6): PD | Survival (Months) ([2]; patient Melanoma P6): 8 Months | Vaccine-specific T cell response at time-point tested ([2]; patient Melanoma P6): Yes | Clinical Responder ([2]; patient Melanoma P7): Yes | Clinical response ([2]; patient Melanoma P7): alive, PR | Vaccine-specific T cell response at time-point tested ([2]; patient Melanoma P7): Yes | Survival (Months) ([2]; patient Melanoma P7, + signifies that the patient is still alive): 65+ Months | Clinical Responder ([2]; patient Melanoma P8): Yes | Survival (Months) ([2]; patient Melanoma P8): 21 Months | Vaccine-specific T cell response at time-point tested ([2]; patient Melanoma P8): Yes | Clinical response ([2]; patient Melanoma P8, TTP = time to progression): increased; also recorded: TTP, PR | Clinical Responder ([3]; patient Lung ca P1): No | Clinical response ([3]; patient Lung ca P1): PD | Survival (Months) ([3]; patient Lung ca P1): 14 Months | Vaccine-specific T cell response at time-point tested ([3]; patient Lung ca P1): Yes | Clinical Responder ([3]; patient Lung ca P2): No | Clinical response ([3]; patient Lung ca P2): PD | Survival (Months) ([3]; patient Lung ca P2): 6 Months | Vaccine-specific T cell response at time-point tested ([3]; patient Lung ca P2): Yes | Clinical Responder ([3]; patient Lung ca P3): No | Survival (Months) ([3]; patient Lung ca P3): 20 Months | Vaccine-specific T cell response at time-point tested ([3]; patient Lung ca P3): Yes | Clinical Responder ([3]; patient Lung ca P4): No | Survival (Months) ([3]; patient Lung ca P4): 10 Months | Vaccine-specific T cell response at time-point tested ([3]; patient Lung ca P4): Yes | Clinical Responder ([3]; patient Lung ca P5): Yes | Clinical response ([3]; patient Lung ca P5): alive, CR | Vaccine-specific T cell response at time-point tested ([3]; patient Lung ca P5): Yes | Survival (Months) ([3]; patient Lung ca P5, + signifies that the patient is still alive): 106+ Months
